Numbers after ± are expanded uncertainties.
Assay: xn = mol fraction of the nth substance listed
Settings: 101 kPa, Liquid; for speed of sound: Sing-around technique in a fixed-path interferometer; for mass density: Vibrating tube method

NCCNCCN [di(2-aminoethyl)amine] + CCCCO
Settings	mass density, 293.15 K [kg/m3]	mass density, 298.15 K [kg/m3]	speed of sound, 293.15 K [m/s]	speed of sound, 298.15 K [m/s]
x1 = 0.0517	821.995 ± 0.14	818.115 ± 0.14	1288 ± 0.8	1271 ± 0.8
x1 = 0.1085	834.306 ± 0.14	830.363 ± 0.14	1319.9 ± 0.8	1302.9 ± 0.8
x1 = 0.153	843.084 ± 0.13	839.101 ± 0.14	1343.3 ± 0.9	1327.1 ± 0.8
x1 = 0.2024	852.085 ± 0.13	–	1369.5 ± 0.9	1351.9 ± 0.9
x1 = 0.2524	860.585 ± 0.13	–	1393.7 ± 0.9	1376.5 ± 0.9
x1 = 0.3079	869.265 ± 0.12	–	1419.6 ± 0.9	1402.5 ± 0.9
x1 = 0.4082	883.406 ± 0.12	–	1464.1 ± 0.9	1446.5 ± 0.9
x1 = 0.5013	895.464 ± 0.12	–	1502.4 ± 0.9	1484.6 ± 0.9
x1 = 0.6067	908.152 ± 0.11	–	1543.5 ± 0.9	1525.4 ± 0.9
x1 = 0.7079	919.755 ± 0.11	–	1581.6 ± 0.9	1562.9 ± 0.9
x1 = 0.8	929.638 ± 0.1	–	1616.5 ± 0.9	1597.5 ± 0.9
x1 = 0.8548	935.634 ± 0.1	–	1637 ± 0.9	1617.8 ± 0.9
x1 = 0.9075	941.042 ± 0.1	–	1656.6 ± 0.9	1637.4 ± 0.9
x1 = 0.9525	945.451 ± 0.099	–	1673.3 ± 1	1653.8 ± 0.9

— the NIST ThermoML archive (doi:10.1016/j.tca.2011.06.003)
